Values quoted from earlier work in patent US20090297596A1, “Nanoparticulate and Controlled Release Compositions Comprising a Platelet Aggregation Inhibitor” (ELAN PHARMA INTERNATIONAL LIMITED, priority 2005, published 2009).
Where two headings read alike, the source gives them in different places.

## O=C1CCc2cc(OCCCCc3nnnn3C3CCCCC3)ccc2N1 [Cilostazol, 6-[4-(1-cyclohexyl-1H-tetrazol-5-yl)butoxy]-3,4-dihydro-2(1H)-quinolinone]
Phosphodiesterase III
  Inhibition of phosphodiesterase III: inhibits
Absolute ether
  Solubility: practically insoluble
Benzyl alcohol
  Solubility: soluble
chloroform
  Solubility: freely soluble
dimethylformamide
  Solubility: soluble
ethanol
  Solubility: slightly soluble
methanol
  Solubility: slightly soluble
Mixture of chloroform and methanol (1:1)
  Solubility: soluble
water
  Solubility: practically insoluble
